Common to all, as to type: biochemical
For one test, the target named is T1, JAK1 (Homo sapiens, UniProt P23458).
T1 construct: JAK1 (aa 850-1154) and TYK2 (aa 871-1187) are expressed with an N-terminally fused GST-tag; GST (N); purchased Carna Biosciences, Inc; host or cells: baculovirus expression system
Briefly: JAK kinase assay (HTRF, phosphorylation of synthetic peptide), JAK1. As to conditions: catalytic domain, ATP at Km (7 μM); read-out: JAK1 kinase inhibitory activity (EC50). An outline of the steps:
(§1)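 Catalytic-domain human JAK1 (GST-tagged, aa 850-1154) or His-tagged JAK2, baculovirus-expressed, phosphorylated 1 µM biotinylated TK peptide at Km ATP (JAK1 7 µM, 10 mM MgCl2, 50 nM SEB; JAK2 4 µM, 5 mM MgCl2) in pH 7.0 Hepes, 20-30 min RT. EDTA stop; overnight streptavidin-XL665/cryptate HTRF read.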
For orientation: In TR-FRET formats the signal depends on donor and acceptor labels being close together.

The next test addresses T2, JAK3 (Homo sapiens, UniProt P52333).
T2 construct: All four purified enzymes contain only the catalytic domain; His (N); purchased Carna Biosciences, Inc; host or cells: baculovirus expression system
Briefly: JAK kinase assay (HTRF, phosphorylation of synthetic peptide), JAK3. As to conditions: catalytic domain, ATP at Km (2 μM); read-out: JAK3 kinase inhibitory activity (EC50).

Another test has as its target T3, JAK2 (Homo sapiens, UniProt O60674).
T3 construct: All four purified enzymes contain only the catalytic domain; His (N); purchased Carna Biosciences, Inc; host or cells: baculovirus expression system
Put plainly: JAK kinase assay (HTRF, phosphorylation of synthetic peptide), JAK2. As to conditions: catalytic domain, ATP at Km (4 μM); read-out: JAK2 kinase inhibitory activity (EC50). In short, it runs like this: as §1

In a further test the target is T4, TYK2 (Homo sapiens, UniProt P29597).
T4 construct: JAK1 (aa 850-1154) and TYK2 (aa 871-1187) are expressed with an N-terminally fused GST-tag; GST (N); purchased Carna Biosciences, Inc; host or cells: baculovirus expression system
T4 sequence (P29597 871-1187): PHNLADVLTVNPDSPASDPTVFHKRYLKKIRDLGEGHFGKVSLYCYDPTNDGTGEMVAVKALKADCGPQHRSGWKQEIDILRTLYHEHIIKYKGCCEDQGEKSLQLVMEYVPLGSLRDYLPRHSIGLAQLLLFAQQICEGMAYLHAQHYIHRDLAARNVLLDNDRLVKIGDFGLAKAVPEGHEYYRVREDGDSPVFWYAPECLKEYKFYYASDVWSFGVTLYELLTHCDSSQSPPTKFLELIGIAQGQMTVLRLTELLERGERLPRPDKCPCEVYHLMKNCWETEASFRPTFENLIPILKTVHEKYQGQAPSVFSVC
Put plainly: JAK kinase assay (HTRF, phosphorylation of synthetic peptide), TYK2. As to conditions: catalytic domain, ATP at Km (13 μM); read-out: TYK2 kinase inhibitory activity (EC50). In short, it runs like this: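 1 µM biotinylated TK peptide at Km ATP in pH 7.0 Hepes, 20-30 min RT. EDTA stop; overnight streptavidin-XL665/cryptate HTRF read.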

Molecules are shown by their SMILES. Where only a bound is given, the exact number is not on record here.

This note sets out measurements from patent US9233964B2, “Sulfamide piperazine derivatives as protein tyrosine kinase inhibitors and pharmaceutical use therof” (LEO PHARMA A/S, priority 2011, dated 2016).

What is called EC50 is the concentration giving half of the maximal effect.

T1 sequence (P23458 850-1154): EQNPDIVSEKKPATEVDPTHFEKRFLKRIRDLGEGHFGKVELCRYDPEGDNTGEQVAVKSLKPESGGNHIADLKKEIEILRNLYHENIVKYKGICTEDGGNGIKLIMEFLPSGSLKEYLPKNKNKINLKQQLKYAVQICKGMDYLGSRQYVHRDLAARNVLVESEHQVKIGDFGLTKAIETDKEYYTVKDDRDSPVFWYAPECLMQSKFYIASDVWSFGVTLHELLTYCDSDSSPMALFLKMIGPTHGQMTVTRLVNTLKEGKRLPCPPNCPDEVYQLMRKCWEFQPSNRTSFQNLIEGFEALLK
T3 sequence (O60674 849-1124 limits assumed): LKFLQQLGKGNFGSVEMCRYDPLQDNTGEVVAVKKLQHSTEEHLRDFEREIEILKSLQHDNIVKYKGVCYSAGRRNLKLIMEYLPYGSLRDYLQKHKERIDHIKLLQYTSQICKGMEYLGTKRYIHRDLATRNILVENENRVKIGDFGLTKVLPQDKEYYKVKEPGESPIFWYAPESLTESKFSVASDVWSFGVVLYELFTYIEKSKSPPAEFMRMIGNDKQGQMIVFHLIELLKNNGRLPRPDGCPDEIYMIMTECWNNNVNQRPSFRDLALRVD
T2 sequence (P52333 822-1111 limits assumed): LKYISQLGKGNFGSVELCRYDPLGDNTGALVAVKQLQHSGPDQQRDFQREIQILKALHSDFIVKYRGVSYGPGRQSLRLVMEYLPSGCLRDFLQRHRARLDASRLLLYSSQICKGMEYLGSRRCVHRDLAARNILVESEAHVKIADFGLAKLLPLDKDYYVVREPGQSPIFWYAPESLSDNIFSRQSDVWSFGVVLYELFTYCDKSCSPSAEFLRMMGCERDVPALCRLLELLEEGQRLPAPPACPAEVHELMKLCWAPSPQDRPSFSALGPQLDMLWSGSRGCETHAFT

On to `CN(CCC1CCCC1)S(=O)(=O)N1CCN(c2ncnc3[nH]ccc23)CC12CC2` [Example 74, N-(2-cyclopentylethyl)-N-methyl-5-(7H-pyrrolo[2,3-d]pyrimidin-4-yl)-5,8-diazaspiro[2.5]octane-8-sulfonamide], for which the EC50 on JAK1 was below 100 nM; on JAK3, 100 to 500 nM; on JAK2, below 100 nM; at TYK2 it was 100 to 500 nM.

Take `CN(CCC1CCS(=O)(=O)C1)S(=O)(=O)N1CCN(c2ncnc3[nH]ccc23)CC12CC2` (centres unmarked) [Example 75, N-[2-(1,1-dioxothiolan-3-yl)ethyl]-N-methyl-5-(7H-pyrrolo[2,3-d]pyrimidin-4-yl)-5,8-diazaspiro[2.5]octane-8-sulfonamide]: the EC50 on JAK1 was below 100 nM; at JAK3 it was below 100 nM; at JAK2 it was below 100 nM; at TYK2, 100 to 500 nM.

`CN(CC1CCCS(=O)(=O)C1)S(=O)(=O)N1CCN(c2ncnc3[nH]ccc23)CC12CC2` (centres unmarked) [Example 76, N-[(1,1-dioxothian-3-yl)methyl]-N-methyl-5-(7H-pyrrolo[2,3-d]pyrimidin-4-yl)-5,8-diazaspiro[2.5]octane-8-sulfonamide]: the half-maximal effective concentration (EC50) was below 100 nM on JAK1, below 100 nM on JAK3, below 100 nM at JAK2 and 100 to 500 nM on TYK2.

For `CN(Cc1ccccc1F)S(=O)(=O)N1CCN(c2ncnc3[nH]ccc23)CC12CC2` [Example 77, N-[(2-fluorophenyl)methyl]-N-methyl-5-(7H-pyrrolo[2,3-d]pyrimidin-4-yl)-5,8-diazaspiro[2.5]octane-8-sulfonamide], the concentration giving a half-maximal response (EC50) at JAK1 is below 100 nM; at JAK3 it was 100 to 500 nM; at JAK2, below 100 nM; on TYK2 it was 100 to 500 nM.

Take `CN(Cc1cccc(F)c1)S(=O)(=O)N1CCN(c2ncnc3[nH]ccc23)CC12CC2` [Example 78, N-[(3-fluorophenyl)methyl]-N-methyl-5-(7H-pyrrolo[2,3-d]pyrimidin-4-yl)-5,8-diazaspiro[2.5]octane-8-sulfonamide]: the EC50 on JAK1 was below 100 nM; at JAK3, below 100 nM; on JAK2, below 100 nM; on TYK2, 100 to 500 nM.

`CN(Cc1ccc(F)cc1)S(=O)(=O)N1CCN(c2ncnc3[nH]ccc23)CC12CC2` [Example 79, N-[(4-fluorophenyl)methyl]-N-methyl-5-(7H-pyrrolo[2,3-d]pyrimidin-4-yl)-5,8-diazaspiro[2.5]octane-8-sulfonamide]: the EC50 is below 100 nM at JAK1, below 100 nM at JAK3, below 100 nM on JAK2 and 100 to 500 nM on TYK2.

With `CN(Cc1ccc(OC(F)(F)F)cc1)S(=O)(=O)N1CCN(c2ncnc3[nH]ccc23)CC12CC2` [Example 80, N-methyl-5-(7H-pyrrolo[2,3-d]pyrimidin-4-yl)-N-[[4-(trifluoromethoxy)phenyl]methyl]-5,8-diazaspiro[2.5]octane-8-sulfonamide], the EC50 was 100 to 500 nM at JAK1, above 500 nM on JAK3, 100 to 500 nM on JAK2 and above 500 nM on TYK2.

In the case of `CN(CCC1CC1)S(=O)(=O)N1CCN(c2ncnc3[nH]ccc23)CC12CC2` [Example 82, N-(2-cyclopropylethyl)-N-methyl-5-(7H-pyrrolo[2,3-d]pyrimidin-4-yl)-5,8-diazaspiro[2.5]octane-8-sulfonamide], the EC50 at JAK1, at JAK3, at JAK2 and at TYK2 was below 100 nM in each case.

For the compound `CN(Cc1ccc(S(C)(=O)=O)cc1)S(=O)(=O)N1CCN(c2ncnc3[nH]ccc23)CC12CC2` [Example 83, N-methyl-N-[(4-methylsulfonylphenyl)methyl]-5-(7H-pyrrolo[2,3-d]pyrimidin-4-yl)-5,8-diazaspiro[2.5]octane-8-sulfonamide], the concentration for a half-maximal effect (EC50) at JAK1, at JAK3, at JAK2 and at TYK2 was below 100 nM each time.

With `CN(CC1CCC(C(C)(C)C)CC1)S(=O)(=O)N1CCN(c2ncnc3[nH]ccc23)CC12CC2` (centres unmarked) [Example 84, N-[(4-tert-butylcyclohexyl)methyl]-N-methyl-5-(7H-pyrrolo[2,3-d]pyrimidin-4-yl)-5,8-diazaspiro[2.5]octane-8-sulfonamide], the concentration for a half-maximal effect (EC50) at JAK1, at JAK3, on JAK2 and on TYK2 was above 500 nM each time.

Take `CN(CC1CC(F)(F)C1)S(=O)(=O)N1CCN(c2ncnc3[nH]ccc23)CC12CC2` [Example 85, N-[(3,3-difluorocyclobutyl)methyl]-N-methyl-5-(7H-pyrrolo[2,3-d]pyrimidin-4-yl)-5,8-diazaspiro[2.5]octane-8-sulfonamide]: the half-maximal effective concentration (EC50) on JAK1, on JAK3, at JAK2 and at TYK2 was below 100 nM each time.

With `CN(CC1CC1(F)F)S(=O)(=O)N1CCN(c2ncnc3[nH]ccc23)CC12CC2` (centres unmarked) [Example 86, N-[(2,2-difluorocyclopropyl)methyl]-N-methyl-5-(7H-pyrrolo[2,3-d]pyrimidin-4-yl)-5,8-diazaspiro[2.5]octane-8-sulfonamide], the EC50 at JAK1, on JAK3, at JAK2 and on TYK2 was below 100 nM throughout.

Take `C=C1CCC(CN(C)S(=O)(=O)N2CCN(c3ncnc4[nH]ccc34)CC23CC3)CC1` [Example 87, N-methyl-N-[(4-methylenecyclohexyl)methyl]-5-(7H-pyrrolo[2,3-d]pyrimidin-4-yl)-5,8-diazaspiro[2.5]octane-8-sulfonamide]: the concentration giving a half-maximal response (EC50) is below 100 nM at JAK1, below 100 nM at JAK3, below 100 nM on JAK2 and 100 to 500 nM at TYK2.

Consider `CN(CC1CC(=O)C1)S(=O)(=O)N1CCN(c2ncnc3[nH]ccc23)CC12CC2` [Example 88, N-methyl-N-[(3-oxocyclobutyl)methyl]-5-(7H-pyrrolo[2,3-d]pyrimidin-4-yl)-5,8-diazaspiro[2.5]octane-8-sulfonamide], for which the EC50 at JAK1 is below 100 nM; at JAK3, 100 to 500 nM; on JAK2 it was below 100 nM; at TYK2, 100 to 500 nM.

Take `CN(CC1CCOCC1)S(=O)(=O)N1CCN(c2ncnc3[nH]ccc23)CC12CC2` [Example 89, N-methyl-5-(7H-pyrrolo[2,3-d]pyrimidin-4-yl)-N-(tetrahydropyran-4-ylmethyl)-5,8-diazaspiro[2.5]octane-8-sulfonamide]: the EC50 is below 100 nM on JAK1, 100 to 500 nM on JAK3, below 100 nM on JAK2 and 100 to 500 nM on TYK2.

With `CN(Cc1cccc(S(N)(=O)=O)c1)S(=O)(=O)N1CCN(c2ncnc3[nH]ccc23)CC12CC2` [Example 90, N-methyl-5-(7H-pyrrolo[2,3-d]pyrimidin-4-yl)-N-[(3-sulfamoylphenyl)methyl]-5,8-diazaspiro[2.5]octane-8-sulfonamide], the EC50 on JAK1, on JAK3, on JAK2 and at TYK2 was below 100 nM throughout.

On to `CN(Cc1ccc(S(N)(=O)=O)cc1)S(=O)(=O)N1CCN(c2ncnc3[nH]ccc23)CC12CC2` [Example 91, N-methyl-5-(7H-pyrrolo[2,3-d]pyrimidin-4-yl)-N-[(4-sulfamoylphenyl)methyl]-5,8-diazaspiro[2.5]octane-8-sulfonamide], for which the 50% effective concentration (EC50) at JAK1, at JAK3, on JAK2 and on TYK2 was below 100 nM each time.

For `CC(C)N(C)S(=O)(=O)N1CCN(c2ncnc3[nH]ccc23)CC12CC2` [Example 94, N-isopropyl-N-methyl-5-(7H-pyrrolo[2,3-d]pyrimidin-4-yl)-5,8-diazaspiro[2.5]octane-8-sulfonamide], the EC50 on JAK1 is below 100 nM; on JAK3 it was 100 to 500 nM; on JAK2, below 100 nM; at TYK2, above 500 nM.

As for `CCN(C(C)C)S(=O)(=O)N1CCN(c2ncnc3[nH]ccc23)CC12CC2` [Example 95, N-ethyl-N-isopropyl-5-(7H-pyrrolo[2,3-d]pyrimidin-4-yl)-5,8-diazaspiro[2.5]octane-8-sulfonamide], the EC50 at JAK1 is 100 to 500 nM; on JAK3, 100 to 500 nM; on JAK2, below 100 nM; on TYK2, above 500 nM.

As for `CC(C)N(CC#N)S(=O)(=O)N1CCN(c2ncnc3[nH]ccc23)CC12CC2` [Example 96, N-(cyanomethyl)-N-isopropyl-5-(7H-pyrrolo[2,3-d]pyrimidin-4-yl)-5,8-diazaspiro[2.5]octane-8-sulfonamide], the EC50 was below 100 nM on JAK1, 100 to 500 nM on JAK3, below 100 nM on JAK2 and above 500 nM on TYK2.
